Source: US9808003B2, “Herbicidally active 2-(substituted-phenyl)-cyclopentane-1,3-dione compounds and derivatives thereof” (Syngenta Limited, priority 2013, dated 2017)

Tests used:
Assay in all cases: Test 1A glasshouse assay, post-emergence herbicidal activity
Assay type in all cases: in vivo
Lolium perenne (LOLPE) = conditions: application rate 250 g/ha, 13 days after application, visual (100%=total damage; 0%=no damage); for pest or weed control at 250 g/ha: Lolium perenne, 312 h, read-out: Post-emergence Herbicidal Activity (% Phytotoxicity) LOLPE
Description: (§1) Seeds of a variety of test species were sown in standard soil in pots. After cultivation for one day (pre-emergence) or after 8 days cultivation (post-emergence) under controlled conditions in a glasshouse (at 24/16° C., day/night; 14 hours light; 65% humidity), the plants were sprayed with an aqueous spray solution derived from the formulation of the technical active ingredient in acetone/water (50:50) solution containing 0.5% Tween 20 (polyoxyethelyene sorbitan monolaurate, CAS RN 9005-64-5). The test plants were then grown under controlled conditions in a glasshouse (at 24/16° C., day/night; 14 hours light; 65% humidity) and watered twice daily. 13 days after application of the test herbicide, for pre- and post-emergence, the test was evaluated visually for percentage phytotoxicity to the plant (where 100%=total damage to plant; 0%=no damage to plant).
(§2) Lolium perenne (LOLPE), Alopecurus myosuroides (ALOMY), Echinochloa crus-galli (ECHCG), and Avena fatua (AVEFA); these are all grassy monocotyledonous weeds.

[1] = system: Alopecurus myosuroides (ALOMY); conditions: application rate 250 g/ha, 13 days after application, visual (100%=total damage; 0%=no damage); for pest or weed control at 250 g/ha: Alopecurus myosuroides, 312 h, read-out: Post-emergence Herbicidal Activity (% Phytotoxicity) ALOMY
Description: as §1, §2

[2] = system: Echinochloa crus-galli (ECHCG); conditions: application rate 250 g/ha, 13 days after application, visual (100%=total damage; 0%=no damage); for pest or weed control at 250 g/ha: Echinochloa crus-galli, 312 h, read-out: Post-emergence Herbicidal Activity (% Phytotoxicity) ECHCG
Description: as §1, §2

Avena fatua (AVEFA) = conditions: application rate 250 g/ha, 13 days after application, visual (100%=total damage; 0%=no damage); for pest or weed control at 250 g/ha: Avena fatua, 312 h, read-out: Post-emergence Herbicidal Activity (% Phytotoxicity) AVEFA
Description: as §1, §2

Row | Structure (SMILES) | pest or weed control at 250 g/ha (Lolium perenne (LOLPE)) | pest or weed control at 250 g/ha [1] | pest or weed control at 250 g/ha [2] | pest or weed control at 250 g/ha (Avena fatua (AVEFA)) | Post-emergence Herbicidal Activity (% Phytotoxicity) LOLPE (Lolium perenne (LOLPE)) | Post-emergence Herbicidal Activity (% Phytotoxicity) ALOMY [1] | Post-emergence Herbicidal Activity (% Phytotoxicity) ECHCG [2] | Post-emergence Herbicidal Activity (% Phytotoxicity) AVEFA (Avena fatua (AVEFA))
1 | Cc1cc(C)c(C2C(=O)CC(CCNC(=O)c3cccc(Br)n3)C2=O)c(C)c1 (centres unmarked) [Compound A48] | 100% | 100% | 100% | 90% | – | – | – | –
2 | Cc1cc(C)c(C2C(=O)CC(CCNC(=O)C(F)c3ccccc3)C2=O)c(C)c1 (centres unmarked) [Compound A50] | 100% | 20% | 70% | 70% | – | – | – | –
3 | Cc1cc(C)c(C2C(=O)CC(CCNC(=O)c3nonc3C)C2=O)c(C)c1 (centres unmarked) [Compound A51] | 100% | 100% | 90% | 90% | – | – | – | –
4 | Cc1cc(C)c(C2C(=O)CC(CCNC(=O)c3cc4ccccc4n3C)C2=O)c(C)c1 (centres unmarked) [Compound A52] | 90% | 70% | 100% | 70% | – | – | – | –
5 | Cc1cc(C)c(C2C(=O)CC(CCNC(=O)c3cscn3)C2=O)c(C)c1 (centres unmarked) [Compound A53] | 100% | 80% | 100% | 90% | – | – | – | –
6 | Cc1cc(C)c(C2C(=O)CC(CCNC(=O)c3nn(C)nc3C)C2=O)c(C)c1 (centres unmarked) [Compound A54] | 100% | 100% | 60% | 100% | – | – | – | –
7 | Cc1cc(C)c(C2C(=O)CC(CCNC(=O)c3cnccn3)C2=O)c(C)c1 (centres unmarked) [Compound A55] | 90% | 80% | 90% | 60% | – | – | – | –
8 | Cc1cc(C)c(C2C(=O)CC(CCNC(=O)c3cnc(C)cn3)C2=O)c(C)c1 (centres unmarked) [Compound A56] | 100% | 100% | 90% | 90% | – | – | – | –
9 | Cc1cc(C)c(C2C(=O)CC(CCNC(=O)c3ccc(C#N)cn3)C2=O)c(C)c1 (centres unmarked) [Compound A57A] | – | – | – | – | 90% | 100% | 90% | 90%
10 | Cc1cc(C)c(C2C(=O)CC(CCNC(=O)c3ccc(C#N)cn3)C2=O)c(C)c1 (centres unmarked) [Compound A57] | 100% | 100% | 100% | 100% | – | – | – | –
11 | Cc1cc(C)c(C2C(=O)CC(CCNC(=O)c3cccn3C)C2=O)c(C)c1 (centres unmarked) [Compound A58] | 80% | 50% | 50% | 30% | – | – | – | –
12 | Cc1cc(C)c(C2C(=O)CC(CCNC(=O)c3nccn3C)C2=O)c(C)c1 (centres unmarked) [Compound A59] | 80% | 60% | 30% | 60% | – | – | – | –
13 | Cc1cc(C)c(C2C(=O)CC(CCNC(=O)c3cnsn3)C2=O)c(C)c1 (centres unmarked) [Compound A60] | 80% | 80% | 70% | 90% | – | – | – | –
14 | Cc1cc(C)c(C2C(=O)CC(CCNC(=O)c3cc(C)on3)C2=O)c(C)c1 (centres unmarked) [Compound A61] | 100% | 90% | 70% | 60% | – | – | – | –
15 | Cc1cc(C)c(C2C(=O)CC(CCNC(=O)c3ncccc3C)C2=O)c(C)c1 (centres unmarked) [Compound A62] | 100% | 100% | 80% | 80% | – | – | – | –
16 | Cc1cc(C)c(C2C(=O)CC(CCNC(=O)c3nccc4ccccc34)C2=O)c(C)c1 (centres unmarked) [Compound A63] | 100% | 90% | 90% | 90% | – | – | – | –
17 | Cc1cc(C)c(C2C(=O)CC(CCNC(=O)c3cccc(C)n3)C2=O)c(C)c1 (centres unmarked) [Compound A64] | 80% | 90% | 60% | 80% | – | – | – | –
